Legend:
[1] = Perfume stabilization effect (photostabilizer, sunlight exposure, judgement by perfumier); set-up: key to Sunlight exposure (80 MJ) Smell evaluation / Sunlight exposure (80 MJ) evaluation: A: No change; B: No almost change; C: Yes change
Description: Next, the photostabilization effect for each perfume was studied by the following evaluation formulation.
Each test sample was prepared. Change of smell of sample exposed to sunlight (80 MJ) was observed (judgement by perfumier).

[2] = Drug stabilization effect (photostabilizer, sunlight exposure); set-up: key to Sunlight exposure (80 MJ) Appearance: A: No change; B: No almost change; C: Yes change; settings: for Sunlight exposure (80 MJ) Appearance / Sunlight exposure (80 MJ) Residual yield [%]: photostabilizer 0.05, amounts wt %
Description: Next, the photo stabilization effect and changes in appearance in drug compositions were studied according to the following evaluation formulation.
Each test sample was prepared. Appearance changes of the samples exposed to sunlight (80 MJ) was observed (visual evaluation). Also, residual yield was measured by liquid chromatography.

[3] = drug 2-o-α-α-glucopyranosyl-L-ascorbic acid 2.0
[4] = drug Dibutylhydroxytoluene 0.01
[5] = drug Dipotassium glycyrrhizinate 0.05
[6] = drug L-ascorbic acid 2-(dl-α-tocopheryl hydrogen phosphate) potassium salt 0.01
[7] = drug combined with photostabilizer, sunlight 80 MJ, summary of Table 23

## Oc1nncc(N2CCOCC2)c1N1CCOCC1 [4,5-Dimorpholino-3-hydroxypyridazine]
[1]; Synthetic perfume Linalool 0.03 wt %, photostabilizer 0.05 wt %
  Sunlight exposure (80 MJ) Smell evaluation: A
[1]; Synthetic perfume Linalyl acetate 0.03 wt %, photostabilizer 0.1 wt %
  Sunlight exposure (80 MJ) Smell evaluation: A
[1]; Synthetic perfume Rose oxide 0.03 wt %, photostabilizer 0.2 wt %
  Sunlight exposure (80 MJ) Smell evaluation: A
[1]; base perfume, summary of Table 19
  change of smell: very small in comparison with other photostabilizers
[1]; natural perfume Ambergris oil, photostabilizer amount 0.3 wt %
  Sunlight exposure (80 MJ) evaluation: A
[1]; natural perfume Bergamot oil, photostabilizer amount 0.1 wt %
  Sunlight exposure (80 MJ) evaluation: A
[1]; natural perfume Castoreum oil, photostabilizer amount 0.3 wt %
  Sunlight exposure (80 MJ) evaluation: A
[1]; natural perfume Cinnamon oil, photostabilizer amount 0.01 wt %
  Sunlight exposure (80 MJ) evaluation: A
[1]; natural perfume Civet oil, photostabilizer amount 0.2 wt %
  Sunlight exposure (80 MJ) evaluation: A
[1]; natural perfume Clary sage oil, photostabilizer amount 0.03 wt %
  Sunlight exposure (80 MJ) evaluation: A
[1]; natural perfume Cloves oil, photostabilizer amount 0.03 wt %
  Sunlight exposure (80 MJ) evaluation: A
[1]; natural perfume Coriander oil, photostabilizer amount 0.01 wt %
  Sunlight exposure (80 MJ) evaluation: A
[1]; natural perfume Geranium oil, photostabilizer amount 0.03 wt %
  Sunlight exposure (80 MJ) evaluation: A
[1]; natural perfume Lemon oil, photostabilizer amount 0.001 wt %
  Sunlight exposure (80 MJ) evaluation: A
[1]; natural perfume Moss oil, photostabilizer amount 0.2 wt %
  Sunlight exposure (80 MJ) evaluation: A
[1]; natural perfume Nutmeg oil, photostabilizer amount 0.01 wt %
  Sunlight exposure (80 MJ) evaluation: A
[1]; natural perfume Oakmoss oil, photostabilizer amount 0.2 wt %
  Sunlight exposure (80 MJ) evaluation: A
[1]; natural perfume Opopanax oil, photostabilizer amount 0.1 wt %
  Sunlight exposure (80 MJ) evaluation: A
[1]; natural perfume Orange oil, photostabilizer amount 0.1 wt %
  Sunlight exposure (80 MJ) evaluation: A
[1]; natural perfume Orris oil, photostabilizer amount 0.2 wt %
  Sunlight exposure (80 MJ) evaluation: A
[1]; natural perfume Patchouli oil, photostabilizer amount 0.01 wt %
  Sunlight exposure (80 MJ) evaluation: A
[1]; natural perfume Pepper oil, photostabilizer amount 0.001 wt %
  Sunlight exposure (80 MJ) evaluation: A
[1]; natural perfume Peppermint oil, photostabilizer amount 0.03 wt %
  Sunlight exposure (80 MJ) evaluation: A
[1]; natural perfume Sandals wood oil, photostabilizer amount 0.01 wt %
  Sunlight exposure (80 MJ) evaluation: A
[1]; natural perfume Tuberose oil, photostabilizer amount 0.03 wt %
  Sunlight exposure (80 MJ) evaluation: A
[1]; natural perfume Vetiver oil, photostabilizer amount 0.2 wt %
  Sunlight exposure (80 MJ) evaluation: A
[1]; natural perfume, summary of Table 17
  change of smell: very small in comparison with other photostabilizers
[1]; synthetic perfume 2,6-Nonadienal, photostabilizer amount 0.03 wt %
  Sunlight exposure (80 MJ) Smell evaluation: A
[1]; synthetic perfume Benzyl benzoate, photostabilizer amount 0.1 wt %
  Sunlight exposure (80 MJ) Smell evaluation: A
[1]; synthetic perfume Cyclopentadecanone, photostabilizer amount 0.05 wt %
  Sunlight exposure (80 MJ) Smell evaluation: A
[1]; synthetic perfume Eugenol, photostabilizer amount 0.1 wt %
  Sunlight exposure (80 MJ) Smell evaluation: A
[1]; synthetic perfume Farnesol, photostabilizer amount 0.01 wt %
  Sunlight exposure (80 MJ) Smell evaluation: A
[1]; synthetic perfume I-Carvone, photostabilizer amount 0.05 wt %
  Sunlight exposure (80 MJ) Smell evaluation: A
[1]; synthetic perfume Indole, photostabilizer amount 0.2 wt %
  Sunlight exposure (80 MJ) Smell evaluation: A
[1]; synthetic perfume Lilial, photostabilizer amount 0.3 wt %
  Sunlight exposure (80 MJ) Smell evaluation: A
[1]; synthetic perfume Lyral, photostabilizer amount 0.3 wt %
  Sunlight exposure (80 MJ) Smell evaluation: A
[1]; synthetic perfume Phenylacetaldehyde dimethyl acetal, photostabilizer amount 0.2 wt %
  Sunlight exposure (80 MJ) Smell evaluation: A
[1]; synthetic perfume cis-3-Hexenol, photostabilizer amount 0.01 wt %
  Sunlight exposure (80 MJ) Smell evaluation: A
[1]; synthetic perfume α-Hexyl cinnamic aldehyde, photostabilizer amount 0.03 wt %
  Sunlight exposure (80 MJ) Smell evaluation: A
[1]; synthetic perfume β-Caryophyllene, photostabilizer amount 0.01 wt %
  Sunlight exposure (80 MJ) Smell evaluation: A
[1]; synthetic perfume β-Ionone, photostabilizer amount 0.05 wt %
  Sunlight exposure (80 MJ) Smell evaluation: A
[1]; synthetic perfume β-Phenylethyl alcohol, photostabilizer amount 0.03 wt %
  Sunlight exposure (80 MJ) Smell evaluation: A
[1]; synthetic perfume γ-Undecalactone, photostabilizer amount 0.1 wt %
  Sunlight exposure (80 MJ) Smell evaluation: A
[1]; synthetic perfume, summary of Table 18
  change of smell: very small in comparison with other photostabilizers
[2]; [3]
  Sunlight exposure (80 MJ) Appearance: A
  Sunlight exposure (80 MJ) Residual yield [%]: 99.3%
[2]; [4]
  Sunlight exposure (80 MJ) Appearance: A
  Sunlight exposure (80 MJ) Residual yield [%]: 98.8%
[2]; [5]
  Sunlight exposure (80 MJ) Appearance: A
  Sunlight exposure (80 MJ) Residual yield [%]: 100.3%
[2]; [6]
  Sunlight exposure (80 MJ) Appearance: A
  Sunlight exposure (80 MJ) Residual yield [%]: 99.4%
[2]; drug Salicylic acid 0.1
  Sunlight exposure (80 MJ) Appearance: A
  Sunlight exposure (80 MJ) Residual yield [%]: 100.3%
[2]; [7]
  appearance changes of the composition: small
  residual yield of a drug: very high in comparison with other photostabilizers
